Patent US20250296914A1, “ANTIVIRAL COMPOUNDS AND COMPOSITIONS THEREFROM” (CONSEJO SUPERIOR DE INVESTIGACIONES CIENTÍFICAS, priority 2022, published 2025)

How the values were obtained:
[1] = test system: SARS-CoV-2 stock strain NL/2020; test: Protective effect against virus-induced cytopathic effect (crystal violet staining of Vero-E6 monolayer); type: cell-based; conditions: Vero-E6, SARS-CoV-2 MOI 0.001, 72 h; for minimal effective concentration / EC50: Severe acute respiratory syndrome coronavirus 2, Vero C1008, 72 h; for minimal effective concentration: read-out: PC MIN (lowest protective concentration); for EC50: lowest fully protecting concentration averaged with next lower dilution, read-out: ESTIMATED EC50
[2] = test system: SARS-CoV-2 stock strain NL/2020; test: Intracellular viral antigen (N protein) accumulation by immunofluorescence, A549-ACE2; type: cell-based; conditions: Severe acute respiratory syndrome coronavirus 2; A549-ACE2, MOI 0.005, viral antigen staining, 48 h
in vitro [3] = conditions: human
in vitro [4] = conditions: African green monkey
[5] = test system: SARS-CoV-2 stock strain NL/2020; test: Intracellular viral antigen (N protein) accumulation by immunofluorescence, Vero-E6; type: cell-based; conditions: Severe acute respiratory syndrome coronavirus 2, Vero C1008; Vero-E6, MOI 0.005, viral antigen staining, 24 h
[6] = test system: SARS-CoV-2 stock strain NL/2020; test: Intracellular viral antigen (N protein) accumulation by immunofluorescence, Calu3; type: cell-based; conditions: Severe acute respiratory syndrome coronavirus 2; Calu-3, MOI 0.005, viral antigen staining, 48 h
[7] = test system: SARS-CoV-2 stock strain NL/2020; test: Intracellular viral RNA quantification by RT-qPCR in A549-ACE2 cells; type: cell-based; conditions: for LOG viral RNA reduction: A549-ACE2, MOI 0.005, 48 h, vs DMSO
in vitro [8] = conditions: human; remark: listed apart in the source

## COC(=O)c1cc(-c2ccnc(N3CCOCC3)c2)ccc1NC(C#N)[C@H](Cc1c[nH]c2ccccc12)NC(=O)OC(C)(C)C (stereo partly drawn) [(Ian), methyl 2-(((2S)-2-((tert-butoxycarbonyl)amino)-1-cyano-3-(1H-indol-3-yl)propyl)amino)-5-(2-morpholinopyridin-4-yl)benzoate]
[1]; 50 to 0.78 μM tested
  minimal effective concentration: 1.85 µM
[1]
  EC50: 1.39 µM
[2]
  EC50: 1.1 µM
  EC90: 6 µM
In vitro [3]
  CC50 at 48 h: > 50 µM

## COC(=O)c1cc(Br)ccc1NC(C#N)[C@H](Cc1c[nH]c2ccccc12)NC(=O)OC(C)(C)C (stereo partly drawn) [(Ib), methyl 5-bromo-2-(((2S)-2-((tert-butoxycarbonyl)amino)-1-cyano-3-(1H-indol-3-yl)propyl)amino)benzoate]
[1]; 50 to 0.78 μM tested
  minimal effective concentration: 0.78 µM
[1]
  EC50: 0.58 µM
[2]
  EC50: 1.8 µM
  EC90: 2.7 µM
In vitro [4]
  CC50 at 48 h: > 12.5 µM
[5]
  EC50: 0.5 µM
  EC90: 2.2 µM
[6]
  EC50: 1.2 µM
  EC90: 2.5 µM

## CC(C)(C)OC(=O)N[C@@H](Cc1c[nH]c2ccccc12)C(C#N)Nc1ccc(Cl)cc1C(=O)c1ccccc1 (stereo partly drawn) [(Id), (3S)-3-(tert-Butoxycarbonylamino)-4-(1H-indol-3-yl)-2-((2-benzoyl-4-chlorophenyl)amino)butanenitrile]
[1]; 50 to 0.78 μM tested
  minimal effective concentration: 0.78 µM
[1]
  EC50: 0.58 µM
[2]
  EC50: 0.6 µM
  EC90: 1.4 µM
In vitro [4]
  CC50 at 48 h: > 50 µM
[5]
  EC50: 0.2 µM
  EC90: 0.5 µM
[6]
  EC50: 0.3 µM
  EC90: 1.1 µM

## COC(=O)c1cc(-c2ccc3c(c2)OCCO3)ccc1NC(C#N)[C@H](Cc1c[nH]c2ccccc12)NC(=O)OC(C)(C)C (stereo partly drawn) [(If), methyl 2-(((2S)-2-((tert-butoxycarbonyl)amino)-1-cyano-3-(1H-indol-3-yl)propyl)amino)-5-(2,3-dihydrobenzo[b][1,4]dioxin-6-yl)benzoate]
[7]; compound concentration 4 μM
  LOG viral RNA reduction: 5.14 LOG
[7]; A549-ACE2, conclusion from Table 5
  Prevention of SARS-CoV-2 propagation (in words): effective in preventing propagation of SARS-CoV-2
[1]; 50 to 0.78 μM tested
  minimal effective concentration: 0.78 µM
[1]
  EC50: 0.58 µM
[2]
  EC50: 1 µM
  EC90: 1.8 µM
In vitro [4]
  CC50 at 48 h: > 50 µM
[5]
  EC50: 1 µM
  EC90: 1.8 µM
[6]
  EC50: 2 µM
  EC90: 4 µM
In vitro [3]
  CC50 at 48 h: > 50 µM
In vitro [8]
  CC50 at 48 h: 50 µM

## COC(=O)c1cc(-c2cccc(N3CCOCC3)c2)ccc1NC(C#N)[C@H](Cc1c[nH]c2ccccc12)NC(=O)OC(C)(C)C (stereo partly drawn) [(Ig), methyl 4-(((2S)-2-((tert-butoxycarbonyl)amino)-1-cyano-3-(1H-indol-3-yl)propyl)amino)-3′-morpholino-[1,1′-biphenyl]-3-carboxylate]
[1]; 50 to 0.78 μM tested
  minimal effective concentration: 0.78 µM
[1]
  EC50: 0.58 µM
[2]
  EC50: 1.8 µM
  EC90: 8 µM
In vitro [4]
  CC50 at 48 h: > 50 µM
[5]
  EC50: 1.3 µM
  EC90: 2 µM
[6]
  EC50: 1.8 µM
  EC90: 8 µM
In vitro [3]
  CC50 at 48 h: > 50 µM
In vitro [8]
  CC50 at 48 h: > 50 µM

## CCOC(=O)c1ccccc1NC(C#N)[C@H](Cc1c[nH]c2ccccc12)NC(=O)OC(C)(C)C (stereo partly drawn) [(Ih), ethyl 2-(((2S)-2-((tert-butoxycarbonyl)amino)-1-cyano-3-(1H-indol-3-yl)propyl)amino)-benzoate]
[1]; 50 to 0.78 μM tested
  minimal effective concentration: 1.56 µM
[1]
  EC50: 1.17 µM
[2]
  EC50: 4 µM
  EC90: 7 µM
In vitro [4]
  CC50 at 48 h: > 12.5 µM
[5]
  EC50: 0.1 µM
  EC90: 2.5 µM
[6]
  EC50: 3.7 µM
  EC90: 4 µM

## COC(=O)c1ccc(Br)cc1NC(C#N)[C@H](Cc1c[nH]c2ccccc12)NC(=O)OC(C)(C)C (stereo partly drawn) [(Ii), methyl 4-bromo-2-(((2S)-2-((tert-butoxycarbonyl)amino)-1-cyano-3-(1H-indol-3-yl)propyl)-amino)benzoate]
[1]; 50 to 0.78 μM tested
  minimal effective concentration: 1.56 µM
[1]
  EC50: 1.17 µM
[2]
  EC50: 2 µM
  EC90: 6 µM
In vitro [4]
  CC50 at 48 h: > 12.5 µM
[5]
  EC50: 0.2 µM
  EC90: 1.4 µM
[6]
  EC50: < 0.9 µM
  EC90: 2.7 µM

## COC(=O)c1cc(-c2ccc(N3CCN(C)CC3)cc2)ccc1NC(C#N)[C@H](Cc1c[nH]c2ccccc12)NC(=O)OC(C)(C)C (stereo partly drawn) [(In), methyl 4-(((2S)-2-((tert-butoxycarbonyl)amino)-1-cyano-3-(1H-indol-3-yl)propyl)amino)-4′-(4-methylpiperazin-1-yl)-[1,1′-biphenyl]-3-carboxylate]
[1]; 50 to 0.78 μM tested
  minimal effective concentration: 1.56 µM
[1]
  EC50: 1.17 µM

## COC(=O)c1cc(-c2cc(OC(C)C)ccc2F)ccc1NC(C#N)[C@H](Cc1c[nH]c2ccccc12)NC(=O)OC(C)(C)C (stereo partly drawn) [(Ip), methyl 4-(((2S)-2-((tert-butoxycarbonyl)amino)-1-cyano-3-(1H-indol-3-yl)propyl)amino)-2′-fluoro-5′-isopropoxy-[1,1′-biphenyl]-3-carboxylate]
[1]; 50 to 0.78 μM tested
  minimal effective concentration: 1.56 µM
[1]
  EC50: 1.17 µM
[2]
  EC50: 5 µM
  EC90: 9 µM
In vitro [4]
  CC50 at 48 h: > 50 µM
[5]
  EC50: 1.5 µM
  EC90: 7 µM
[6]
  EC50: 1.8 µM
  EC90: 8 µM

## COC(=O)c1cc(-c2ccc(C)nc2)ccc1NC(C#N)[C@H](Cc1c[nH]c2ccccc12)NC(=O)OC(C)(C)C (stereo partly drawn) [(Ir), methyl 2-(((2S)-2-((tert-butoxycarbonyl)amino)-1-cyano-3-(1H-indol-3-yl)propyl)amino)-5-(6-methylpyridin-3-yl)benzoate]
[1]; 50 to 0.78 μM tested
  minimal effective concentration: 1.56 µM
[1]
  EC50: 1.17 µM

## COC(=O)c1cc(-c2ccc(N3CCOCC3)nc2)ccc1NC(C#N)[C@H](Cc1c[nH]c2ccccc12)NC(=O)OC(C)(C)C (stereo partly drawn) [(Is), methyl 2-(((2S)-2-((tert-butoxycarbonyl)amino)-1-cyano-3-(1H-indol-3-yl)propyl)amino)-5-(6-morpholinopyridin-3-yl)benzoate]
[1]; 50 to 0.78 μM tested
  minimal effective concentration: 1.56 µM
[1]
  EC50: 1.17 µM
[2]
  EC50: 2 µM
  EC90: 8 µM
In vitro [4]
  CC50 at 48 h: > 50 µM
[5]
  EC50: 0.4 µM
  EC90: 1.8 µM
[6]
  EC50: 1.3 µM
  EC90: 8 µM
In vitro [3]
  CC50 at 48 h: > 50 µM
In vitro [8]
  CC50 at 48 h: > 50 µM

## COC(=O)c1cc(-c2ccc(OC)nc2)ccc1NC(C#N)[C@H](Cc1c[nH]c2ccccc12)NC(=O)OC(C)(C)C (stereo partly drawn) [(It), methyl 2-(((2S)-2-((tert-butoxycarbonyl)amino)-1-cyano-3-(1H-indol-3-yl)propyl)amino)-5-(6-methoxypyridin-3-yl)benzoate]
[1]; 50 to 0.78 μM tested
  minimal effective concentration: 1.56 µM
[1]
  EC50: 1.17 µM

## COC(=O)c1ccccc1NC(C#N)[C@H](Cc1c[nH]c2ccccc12)NC(=O)OC(C)(C)C (stereo partly drawn) [(Iu), methyl 2-(((2S)-2-((tert-butoxycarbonyl)amino)-1-cyano-3-(1H-indol-3-yl)propyl)amino)benzoate]
[1]; 50 to 0.78 μM tested
  minimal effective concentration: 3.12 µM
[1]
  EC50: 2.34 µM

## CC(C)(C)OC(=O)N[C@@H](Cc1c[nH]c2ccccc12)C(C#N)Nc1ccccc1C(=O)OC(C)(C)C (stereo partly drawn) [(Iv), tert-Butyl 2-(((2S)-2-((tert-butoxycarbonyl)amino)-1-cyano-3-(1H-indol-3-yl)propyl)amino)-benzoate]
[1]; 50 to 0.78 μM tested
  minimal effective concentration: 3.12 µM
[1]
  EC50: 2.34 µM

## CCCCc1ccc(-c2ccc(NC(C#N)[C@H](Cc3c[nH]c4ccccc34)NC(=O)OC(C)(C)C)c(C(=O)OC)c2)cc1 (stereo partly drawn) [(Iw), methyl 4-(((2S)-2-((tert-butoxycarbonyl)amino)-1-cyano-3-(1H-indol-3-yl)propyl)amino)-4′-butyl-[1,1′-biphenyl]-3-carboxylate]
[1]
  EC50: 2.34 µM
[1]; 50 to 0.78 μM tested
  PC MIN (lowest protective concentration): 3.12 µM

## CCN(CC)c1ccc(-c2ccc(NC(C#N)[C@H](Cc3c[nH]c4ccccc34)NC(=O)OC(C)(C)C)c(C(=O)OC)c2)cc1 (stereo partly drawn) [(Ix), methyl 4-(((2S)-2-((tert-butoxycarbonyl)amino)-1-cyano-3-(1H-indol-3-yl)propyl)amino)-4′-(diethylamino)-[1,1′-biphenyl]-3-carboxylate]
[1]; 50 to 0.78 μM tested
  minimal effective concentration: 3.12 µM
[1]
  EC50: 2.34 µM

## CCCOc1ccc(-c2ccc(NC(C#N)[C@H](Cc3c[nH]c4ccccc34)NC(=O)OC(C)(C)C)c(C(=O)OC)c2)cc1 (stereo partly drawn) [(Iy), methyl 4-(((2S)-2-((tert-butoxycarbonyl)amino)-1-cyano-3-(1H-indol-3-yl)propyl)amino)-4′-propoxy-[1,1′-biphenyl]-3-carboxylate]
[1]; 50 to 0.78 μM tested
  minimal effective concentration: 3.12 µM
[1]
  EC50: 2.34 µM

## COC(=O)c1cc(-c2cccc(C(C)(C)C)c2)ccc1NC(C#N)[C@H](Cc1c[nH]c2ccccc12)NC(=O)OC(C)(C)C (stereo partly drawn) [(Iz), methyl 4-(((2S)-2-((tert-butoxycarbonyl)amino)-1-cyano-3-(1H-indol-3-yl)propyl)amino)-3′-(tert-butyl)-[1,1′-biphenyl]-3-carboxylate]
[1]; 50 to 0.78 μM tested
  minimal effective concentration: 3.12 µM
[1]
  EC50: 2.34 µM

## CCC(CC)COC(=O)[C@H](C)N[P@](=O)(OC[C@H]1O[C@@](C#N)(c2ccc3c(N)ncnn23)[C@H](O)[C@@H]1O)Oc1ccccc1 [Remdesivir, remdesivir, reference compound]
[7]; compound concentration 5 μM
  LOG viral RNA reduction: 6.67 LOG
